According to BindingDB's records for patent US9890168 (Shanghai Haiyan Pharmaceutical Technology, 2018):
pIC50: −log10 of the molar value.

Molecular target: Epidermal growth factor receptor (Homo sapiens, UniProt P00533)
Assay: Inhibition Assay

Chain of Epidermal growth factor receptor (P00533 whole entry): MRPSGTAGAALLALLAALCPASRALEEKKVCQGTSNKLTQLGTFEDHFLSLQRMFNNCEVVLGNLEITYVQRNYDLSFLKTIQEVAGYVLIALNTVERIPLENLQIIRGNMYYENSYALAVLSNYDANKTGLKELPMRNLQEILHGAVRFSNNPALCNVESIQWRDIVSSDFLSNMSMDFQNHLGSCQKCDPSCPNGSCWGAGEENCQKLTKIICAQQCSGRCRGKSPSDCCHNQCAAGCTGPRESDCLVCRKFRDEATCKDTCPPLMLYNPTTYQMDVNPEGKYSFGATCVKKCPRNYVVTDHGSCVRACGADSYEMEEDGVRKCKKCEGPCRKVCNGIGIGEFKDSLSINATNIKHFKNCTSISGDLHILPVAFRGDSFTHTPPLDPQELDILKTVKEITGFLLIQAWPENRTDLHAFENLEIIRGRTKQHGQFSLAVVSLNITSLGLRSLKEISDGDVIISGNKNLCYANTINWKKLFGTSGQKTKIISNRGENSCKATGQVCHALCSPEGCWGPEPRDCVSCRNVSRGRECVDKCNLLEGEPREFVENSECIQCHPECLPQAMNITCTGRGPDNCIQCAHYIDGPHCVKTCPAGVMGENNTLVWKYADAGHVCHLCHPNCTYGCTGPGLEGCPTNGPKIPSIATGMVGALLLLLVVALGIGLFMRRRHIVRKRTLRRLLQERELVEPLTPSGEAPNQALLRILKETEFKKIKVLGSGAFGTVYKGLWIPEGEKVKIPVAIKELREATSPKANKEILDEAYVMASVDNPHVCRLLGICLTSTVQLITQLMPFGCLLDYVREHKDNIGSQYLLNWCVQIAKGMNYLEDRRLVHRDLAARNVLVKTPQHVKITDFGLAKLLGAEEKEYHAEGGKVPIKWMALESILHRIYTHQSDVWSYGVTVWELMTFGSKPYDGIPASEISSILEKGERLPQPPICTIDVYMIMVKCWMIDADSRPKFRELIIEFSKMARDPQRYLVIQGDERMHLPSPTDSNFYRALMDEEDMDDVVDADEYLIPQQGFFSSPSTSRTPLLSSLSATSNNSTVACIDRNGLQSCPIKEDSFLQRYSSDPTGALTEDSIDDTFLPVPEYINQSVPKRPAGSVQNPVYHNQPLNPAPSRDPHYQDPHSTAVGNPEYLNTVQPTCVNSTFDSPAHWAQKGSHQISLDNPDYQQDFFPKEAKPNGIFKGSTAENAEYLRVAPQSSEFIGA

pIC50 | SMILES
< 6.00 | C=CC(=O)Nc1cc(Nc2nc(-c3cnn(C)c3)c3c(C)c[nH]c3n2)c(OC)cc1N1CCC(N(C)C)CC1 [US9890168, Compound 14]
6.24 | C=CC(=O)Nc1cc(Nc2nc(-c3cnn(C)c3)c3cc[nH]c3n2)c(OC)cc1OCCN(C)C [US9890168, Compound 10]
